Data on three compounds can be found in patent US9376663B2, “GPR15-mediated homing and uses thereof” (New York University, priority 2013, dated 2016).

For experiment [1], the target named is T1, inducible caspase 9 (iCasp9) (Homo sapiens, UniProt P55211+P62942, F37V).
T1 construct: human caspase 9 (fusion partner in the same polypeptide)
The settings on record: patients wherein GVHD developed; cited from earlier work.

In experiment [2] the test system is GPR15 expression. Kind of experiment: In vitro stimulation of T cells to examine GFP (GPR15 reporter) induction. The format is cell-based, mouse. The settings on record: various concentration of retinoic acid with IL-2 only, 3 days, CD4+ Tnaive and Tregs from Gpr15gfp/+ Foxp3ires-mrfp mice. How it is done:
All T cell cultures were done in RPMI-10. CD4^+ Tnaive (CD62L^hiCD44^loCD25^−mRFP^− GFP^−), Tregs with naive phenotype (CD62L^hiCD44^loCD25^+mRFP^+ GFP^−), Tmemory (CD62L^loCD44^hiCD25^−mRFP^− GFP^−), and Tregs with memory phenotype (CD62L^loCD44^hiCD25^+mRFP^+ GFP^−) were sorted from Gpr15^gfp/+ Foxp3^ires-mrfp mice. Sorted cells were stimulated with 0.25 μg/ml αCD3ε (145-2c11, ATCC) and 1 μg/ml of αCD28 antibodies (37.51, eBiosciences) cross-linked by plate-bound α-hamster IgG in the presence of human IL-2 (100 U/ml) alone, or additionally with IL-21 (10 ng/ml, R&D systems) or IL-6 (20 ng/ml, Peprotech), or IL-27 (20 ng/ml, eBioscience) in the presence of varying concentrations of human TGF-β1 (αTGFβ blocking antibody [R&D systems], or 0, 0.5 ng/ml, or 5 ng/ml TGF-β1 [Peprotech]) for 3 days. The same conditions were used for retinoic acid (Sigma-Aldrich) treatment with IL-2 only.

Experiment [3] has as its system homing of T cells to the large intestine lamina propria (LILP). Description: Short-term competitive homing assay. The format is in vivo, mouse. The settings on record: GPR15+ cells treated before transfer, co-transfer with untreated control-transduced cells. As to the method:
The coding region of mouse GPR15 was cloned into the MSCV-IRES-Thy1.1 retroviral construct (38). Retroviruses were generated by transient transfection of Phoenix cells. CD4^+ CD62L^highCD44^lowCD25^− Tnaive cells were sorted by FACS Aria IIu (BD Biosciences) and stimulated with 0.25 μg/ml of αCD3ε (145-2c11, ATCC) and 1 μg/ml of αCD28 (37.51, eBiosciences) antibodies cross-linked by plate-bound α-hamster IgG (MP Biochemical) in RPMI-10. At day 1 and day 2 after stimulation, cells were transduced with retrovirus (spinning at 850 g for 2 h with 4 μg/ml of polybrene). CD4^+ Tnaive cells from B6. SJL-Ptprc^aPep3^b/BoyJ (The Jackson Laboratory) were used for transduction of Gpr15 and CD4^+ Tnaive cells from C57BL/6 were used for transduction of empty vector. At day 3, cells were washed and plated again only with 100 U/ml of IL-2. At day 5, live cells were harvested by lymphocyte-M (Cedarlane). The congenic cells were mixed at a 1:1 ratio and 20-30 million mixed cells in total were transferred intravenously into the recipient mice (C57BL/6). Migration of donor cells into each organ was determined at 10 h after transfer (unless specified) by flow cytometry analysis. All donor cells expressed THY1.1 and GPR15-expressing cells and control cells expressed CD45.1 and CD45.2, respectively. […]

T1 sequence (P62942+P55211 fused P62942:F37V): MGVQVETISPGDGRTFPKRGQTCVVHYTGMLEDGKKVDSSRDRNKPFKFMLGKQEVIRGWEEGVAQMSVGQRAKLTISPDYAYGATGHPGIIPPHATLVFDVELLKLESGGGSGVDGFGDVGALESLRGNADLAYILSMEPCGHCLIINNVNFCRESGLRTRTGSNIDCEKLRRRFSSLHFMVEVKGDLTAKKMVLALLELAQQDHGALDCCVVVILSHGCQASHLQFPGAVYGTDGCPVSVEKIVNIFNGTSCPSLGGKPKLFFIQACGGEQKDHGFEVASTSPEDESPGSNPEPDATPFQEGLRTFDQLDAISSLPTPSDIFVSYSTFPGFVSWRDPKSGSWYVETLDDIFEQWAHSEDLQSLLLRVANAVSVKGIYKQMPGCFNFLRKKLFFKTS

Regarding `CC[C@H](C(=O)N1CCCC[C@H]1C(=O)O[C@H](CCc1ccc(OC)c(OC)c1)c1cccc(OCC(=O)NCCNC(=O)COc2cccc([C@@H](CCc3ccc(OC)c(OC)c3)OC(=O)[C@@H]3CCCCN3C(=O)[C@@H](CC)c3cc(OC)c(OC)c(OC)c3)c2)c1)c1cc(OC)c(OC)c(OC)c1` [AP1903], in experiment [1], the “elimination of the transplanted genetically modified T cells” value is recorded as “greater than 90%”.

Consider `CC1=C(/C=C/C(C)=C/C=C/C(C)=C/C(=O)O)C(C)(C)CCC1` [Retinoic acid], for which the entries for the “GPR15 induction (GFP reporter)” value in experiment [2] and in experiment [2] (listed as RA) were “does not induce GPR15 expression” and “not induced”, respectively.

As to pertussis toxin, in experiment [3], the “enrichment of Gpr15-transduced cells in the LILP after treatment of the cells before transfer” value was “no longer enriched in the LILP”.
